Values quoted from earlier work, collected in patent publication US20260373185A1, “METHODS FOR SEQUENTIALLY ADMINISTERING TAS-102 AND BCL-2 INHIBITOR FOR CANCER TREATMENT” (Health Research, Inc., priority 2023, published 2026).
Blank lines part the entries; values can stand above or below the compound they belong to.

Assays:
BCL-w = conditions: cell-free assays
A1 = conditions: relative to BCL-xL, BCL-2 and BCL-w
p53-deficient cancers = conditions: current DNA-damaging drugs

Ki (BCL-w): ≤ 1 nM
binding to Mcl-1 (MCL-1; relative to BCL-xL, BCL-2 and BCL-w): binds more weakly
binding to A1 (A1): binds more weakly
Structure (SMILES): CC1(C)CCC(c2ccc(Cl)cc2)=C(CN2CCN(c3ccc(C(=O)NS(=O)(=O)c4ccc(N[C@H](CCN5CCOCC5)CSc5ccccc5)c(S(=O)(=O)C(F)(F)F)c4)cc3)CC2)C1 [Navitoclax]

Structure (SMILES): CC1(C)CCC(CN2CCN(c3ccc(C(=O)NS(=O)(=O)c4ccc(NCC5CCOCC5)c([N+](=O)[O-])c4)c(Oc4cnc5[nH]ccc5c4)c3)CC2)=C(c2ccc(Cl)cc2)C1 [Venetoclax]
activity to MCL-1 (MCL-1; cell-free assays): no activity

Structure (SMILES): N.N.[Cl][Pt][Cl] [cisplatin]
toxicity by p53 status (p53-deficient cancers): toxicity regardless of p53 status

Structure (SMILES): Nc1ccn([C@@H]2O[C@H](CO)[C@@H](O)C2(F)F)c(=O)n1 [gemcitabine]
toxicity by p53 status (p53-deficient cancers): toxicity regardless of p53 status
